Laboratory results as given in patent publication US10851069B2, “Compositions of crystallized hydrophobic compounds and methods of making and using same” (Massachusetts Institute of Technology, priority 2016, dated 2020).

Tests used:
[1] = In vitro drug release from alginate capsules loaded with crystalline or amorphous formulations; type: physicochemical
Method: Release study was carried out in 3 different media, a normal saline-Isopropyl alcohol (10%) mixture, a phosphate buffer (pH 7.4), or for accelerated condition with phosphate buffered saline (pH 7.4) either with 0.1% w/v or 03% w/v SDS. Release study at NS+10% IPA was carried out in 2 ml medium at 37° C. Sampling was carried out by replacement of 1.5 ml of release medium by total replacement of release medium with fresh medium. […] For release in accelerated condition (PBS+SDS), the same time points were followed while 20 μl of drug loaded capsules were incubated in 2 ml release medium to achieve sink conditions. Drug concentration in samples was measured by reverse phase HPLC on C-18 column with a mobile phase or using UV calibrated system. An isocratic mode was set at a flow rate of 0.5-2 ml/min and a different wave-length of nm and 20-50 μl of samples was injected into an HPLC system (Waters, LC-Module-I) or UV analyzed. Calibration curves were prepared in concentration range of 0.05-10 μg/ml. Using prepared calibration curves, drugs concentration in different release samples were calculated.

[2] = tested on: C57BL/6 mice; assay: Crystalline drug-loaded alginate capsules, long-term IP/SC implantation, prevention of fibrosis; type: in vivo; conditions: crystalline form in alginate capsules, retrieved after 1, 3 and 6 months from IP space
Excerpt: Lead compounds identified by screening the amorphous formulations (e.g., compounds of Formulae I-X, particularly LY215799, Dx, Curcumin, GW2580, QNZ and Ki20227) were studied for long-term release and prevention of fibrosis following encapsulation in crystalline form and implantation into the intraperitoneal (IP) space of C57BL/6 mice for long term testing. […] Drug extraction analysis by HPLC also determined that notable percentages (e.g., more than 50%) of the loaded drug remained within the retrieved capsules (FIG. 22D), particularly in the subcutaneous implanted samples. […] In contrast, capsules retrieved from the IP space 6 months post-implantation were identified with only 2-40% of the loaded drug remaining within the retrieved capsules.
All animal protocols were approved by the MIT Committee on Animal Care, and all surgical procedures and post-operative care was supervised by MIT Division of Comparative Medicine veterinary staff. Immune-competent male non-diabetic or STZ-induced diabetic C57BL/6 mice (Jackson Laboratory, Bar Harbor, Me.) were anesthetized with 3% isoflurane in oxygen and had their abdomens shaved and sterilized using betadine and isopropanol. Preoperatively, all mice also received a 0.05 mg/kg dose of buprenorphine subcutaneously as a pre-surgical analgesic, along with 0.3 mL of 0.9% saline subcutaneously to prevent dehydration. A […] incision was made along the midline of the abdomen and the peritoneal lining was exposed using blunt dissection. The peritoneal wall was then grasped with forceps and a 0.5-1 mm incision was made along the linea alba. A desired volume of spheres (all materials without islets, as well as SLG20 spheres encapsulating rat islets) were then loaded into a sterile pipette and implanted into the peritoneal cavity through the incision. The incision was then closed using 5-0 taper-tipped polydioxanone (PDS II) absorbable sutures. The skin was then closed over the incision using a wound clip and tissue glue.
At desired time points post-implantation or transplantation (with encapsulated islets), as specified in figures, mice were euthanized by CO2 administration, followed by cervical dislocation. In certain instances, 5 ml of ice cold PBS was first injected in order perform an intraperitoneal lavage to rinse out and collect free-floating intraperitoneal immune cells. An incision was then made using the forceps and scissors along the abdomen skin and peritoneal wall, and intraperitoneal lavage volumes were pipetted out into fresh 15 ml falcon tubes (each prepared with 5 ml of RPMI cell culture media). Next, a wash bottle tip was inserted into the abdominal cavity. KREBS buffer was then used to wash out all material spheres from the abdomen and into petri dishes for collection. After ensuring all the spheres were washed out or manually retrieved (if fibrosed directly to intraperitoneal tissues), they were transferred into 50 mL conical tubes for downstream processing and imaging. After intraperitoneal lavage and sphere retrieval, remaining fibrosed intraperitoneal tissues were also excised for downstream FACS and expression analyses.
For phase contrast imaging, retrieved materials were gently washed using Krebs buffer and transferred into 35 mm petri dishes for phase contrast microscopy using an Evos X1 microscope (Advanced Microscopy Group).
Immunofluorescence imaging was used to determine immune populations attached to spheres. […]

[3] = tested on: C57BL/6 mice; assay: Anti-fibrotic screening of amorphous drug formulations in 500 μm alginate capsules, 2-week intraperitoneal implantation; type: in vivo; conditions: conclusion; alginate hydrogel, ceramic, glass, PDMS and polystyrene beads
Excerpt: For screening of anti-fibrotic drug activity, amorphous drug formulations were encapsulated inside 500 μm alginate capsules. Broad-spectrum anti-inflammatory agents curcumin, dexamethasone, and rapamycin have been used for preventing fibrosis of various biomaterials, such as polymer PLGA and hydrogel alginate. A panel of lead drug candidates (e.g., compounds of Formulae I-X) including the traditional broad-spectrum anti-inflammatories as well as agents targeted to essential macrophage biology pathways (e.g., TNFα, NFκB, p110δ/PI3K, TGFβ, and CSF1R) were selected. […] SLG20 alginate hydrogel spheres with these lead drug candidates were prepared as amorphous formulations to investigate the effect of macrophage immunomodulation on foreign body response. Drugs were encapsulated in amorphous form prepared by first dissolving in an organic solvent (e.g., vehicle in FIGS. 7, 9) then by mixing with alginate aqueous solution. Efficacy in preventing fibrosis was assessed in C57BL/6 mice at 2-weeks post implantation into the intraperitoneal (IP) cavity. Drug-containing spheres (500 μl/animal) were then implanted into the intraperitoneal space of C57BL/6 mice for 14 days. After this period, spheres were harvested and studied for cellular deposition and fibrosis.
All animal protocols were approved by the MIT Committee on Animal Care, and all surgical procedures and post-operative care was supervised by MIT Division of Comparative Medicine veterinary staff. Immune-competent male non-diabetic or STZ-induced diabetic C57BL/6 mice (Jackson Laboratory, Bar Harbor, Me.) were anesthetized with 3% isoflurane in oxygen and had their abdomens shaved and sterilized using betadine and isopropanol. Preoperatively, all mice also received a 0.05 mg/kg dose of buprenorphine subcutaneously as a pre-surgical analgesic, along with 0.3 mL of 0.9% saline subcutaneously to prevent dehydration. A […] incision was made along the midline of the abdomen and the peritoneal lining was exposed using blunt dissection. […]

[4] = tested on: inflammatory macrophage markers Sphk1, TNFα, Arg1, IL1; assay: NanoString multiplexed gene expression analysis of retrieved capsules; type: in vivo, C57BL/6 mice; conditions: amorphous drug-loaded capsules, 2 weeks IP; CSF1R-targeting agents compared
Method: RNAs for mock-implanted (mock) controls, or for various drug-loaded 0.5 mm diameter alginate sphere-bearing mice (n=4/group) were isolated from tissue samples taken at various time points after implantation, as described. Respective RNAs were quantified, diluted to the appropriate concentration (100 ng/μl), and then 500 ng of each sample was processed according to NanoString manufacturer protocols for expression analysis via our customized multiplexed gene mouse macrophage subtyping panel. RNA levels (absolute copy numbers) were obtained following nCounter (NanoString Technologies Inc., Seattle, Wash.) quantification, and group samples were analyzed using nSolver analysis software (NanoString Technologies Inc., Seattle, Wash.).

## COc1cc(/C=C/C(=O)CC(=O)/C=C/c2ccc(O)c(OC)c2)ccc1O [Curcumin, (1E,6E)-1,7-bis (4-hydroxy-3-methoxyphenyl)-1,6-heptadiene-3,5-dione]
[1]; amorphous curcumin encapsulated in alginate, in vitro up to 2 months
  drug release profile: quicker drug release
[1]; crystalline curcumin encapsulated in alginate, in vitro up to 2 months
  drug release profile: releases more slowly initially, but can be maintained for much longer periods of time
[1]; crystalline curcumin loaded into alginate spheres
  duration of long-term release (slow surface erosion): at least 2 months
[1]; mixed crystalline:amorphous 3:1 curcumin in alginate
  drug release profile: both quick and extended release
[2]
  fibrosis by phase contrast imaging and confocal microscopy: fibrosis free

## COc1cc(Oc2ccnc3cc(OC)c(OC)cc23)ccc1NC(=O)NC(C)c1nccs1 (centres unmarked) [Ki20227, N-[4-[(6,7-Dimethoxy-4-quinolinyl)oxy]-2-methoxyphenyl]-N′-[1-(2-thiazolyl)ethyl]urea]
[3]
  efficacy in inhibiting fibrosis of implanted biomaterial: demonstrated efficacy in inhibiting fibrosis
[2]
  fibrosis by phase contrast imaging and confocal microscopy: fibrosis free

## Cc1cccc(-c2nn3c(c2-c2ccnc4ccc(C(N)=O)cc24)CCC3)n1 [LY215799, 4-(2-(6-methylpyridin-2-yl)-5,6-dihydro-4H-pyrrolo[1,2-b]pyrazol-3-yl)quinoline-6-carboxamide]
[2]
  fibrosis by phase contrast imaging and confocal microscopy: fibrosis free

## Nc1ccc2ncnc(NCCc3ccc(Oc4ccccc4)cc3)c2c1 [QNZ, N4-(4-phenoxyphenethyl)quinazoline-4,6-diamine]
[2]
  fibrosis by phase contrast imaging and confocal microscopy: fibrosis free

## Cc1ccc(Nc2c(C(N)=O)cnc3cc(-c4ccc(S(C)(=O)=O)cc4)ccc23)cc1C [cFMS receptor inhibitor III, 4-(3,4-Dimethylanilino)-7-(4-(methylsulfonyl)phenyl)quinoline-3-carboxamide]
[4]
  gene expression responses: almost identical gene expression responses
[3]
  efficacy in inhibiting fibrosis of implanted biomaterial: demonstrated efficacy in inhibiting fibrosis
